In patent US20090274577A1, “STE[…] TREATMENT WITH REDUCTANT AND OXIDANT” (priority 2008, published 2009):

Tested on: Bacillus atrophaeus spores
Assay: Filtering test: spores incubated in test solution, filtered, filter half treated with ozone, colonies counted
Type: cell-based
Text: Bacterial spores: Stainless steel discs with Bacillus atrophaeus spores (log 6, cat #1-6100ST, Raven Biological Laboratories).
An ozone generator provided ˜350 ppm O3, and a flow rate of ˜25 l/min, using setting No. 1.
Commercially available sterile single filters (pore size 0.45 μm) and an analytical test filter funnel from Nalgene was used (F-2161, Sigma-Aldrich). For suction, a Rietschle Thomas DTF 6 vacuum pump was used, with a flow rate of ˜6 m3/h, providing a vacuum of ˜150 mbar abs.
Filtering test: In filtering test experiments the spore solutions were prepared in a volume of 1 ml and processed. Thereto, after an incubation period of 5 min in the appropriate buffer at 40° C. using a rotary shaker, an aliquot of 250 μl of the suspension was transferred onto a sterile single use filters. The filter was washed two times with 10 ml of sterile water. The filter was retrieved under sterile conditions, and the filter was cut into halves using a sterile scissor. Only one half of the filter was treated with ozone, while the other half was kept as control, i.e. without ozone treatment. Finally, both halves were placed onto a TSA plate and incubated at 30° C. Initially Nutrient Agar plates were used, but later on a switch was made to TSA plates, in order to utilize the more pronounced reddish colour of Bacillus atrophaeus colonies which was facilitating analysis and documentation. […]

`OC(CS)C(O)CS` (racemic) [DTT, DL-dithiotreitol] was tested, and the “reduction of viability of Bacillus atrophaeus” value (liquid media comprising reductant, then sterile air with ~350 ppm ozone for 5 or 10 min) was 3-5 logs and the “sterilizing/disinfecting/killing effect (in words)” value (test solution followed by ~350 ppm ozone, 5 or 10 min) was “improved”.
